#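 Briefly, cells in 96-well plates were exposed to five compound concentrations for 48 h, and endpoints were estimated by linear interpolation. GI50 marks 50% less growth. Definition used: TGI = concentration required for complete inhibition of growth.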
# Legend:
# Experiment in all cases: NCI tumour cell line growth inhibition, 48 h
# A549 NSCLC = test system: A549 NSCLC
# SNB-75 CNS = test system: SNB-75 CNS
# MCF7 breast = test system: MCF7 breast
# HT29 colon = test system: HT29 colon
# HOP-92 NSCLC = test system: HOP-92 NSCLC
# UO-31 renal = test system: UO-31 renal
# KM12 colon = test system: KM12 colon
# RXF 393 renal = test system: RXF 393 renal
# NCI-H23 lung = test system: NCI-H23 lung
# ACHN renal = test system: ACHN renal
# SNB-19 CNS = test system: SNB-19 CNS
# HCT-116 colon = test system: HCT-116 colon
# HL-60(TB) leukemia = test system: HL-60(TB) leukemia
# MALME-3M melanoma = test system: MALME-3M melanoma
# DU-145 prostate = test system: DU-145 prostate
# NCI-H460 lung = test system: NCI-H460 lung
# SF-268 CNS = test system: SF-268 CNS
# SK-MEL-5 melanoma = test system: SK-MEL-5 melanoma
# K-562 leukemia = test system: K-562 leukemia
# NCI-H522 lung = test system: NCI-H522 lung
# SF-295 CNS = test system: SF-295 CNS
# IGROV1 ovarian = test system: IGROV1 ovarian
# OVCAR-4 ovarian = test system: OVCAR-4 ovarian
# A498 renal = test system: A498 renal
# MDA-MB-435 = test system: MDA-MB-435
# SK-MEL-2 melanoma = test system: SK-MEL-2 melanoma
# UACC-257 melanoma = test system: UACC-257 melanoma
# NCI/ADR-RES ovarian = test system: NCI/ADR-RES ovarian
# OVCAR-3 ovarian = test system: OVCAR-3 ovarian
# MDA-MB-231 breast = test system: MDA-MB-231 breast
# OVCAR-8 ovarian = test system: OVCAR-8 ovarian
# BT-549 breast = test system: BT-549 breast
# TK-10 renal = test system: TK-10 renal
# COLO 205 colon = test system: COLO 205 colon
# RPMI-8226 leukemia = test system: RPMI-8226 leukemia
# HOP-62 NSCLC = test system: HOP-62 NSCLC
# HS 578T breast = test system: HS 578T breast
# HCT-15 colon = test system: HCT-15 colon
# SK-MEL-28 melanoma = test system: SK-MEL-28 melanoma
# MDA-MB-468 breast = test system: MDA-MB-468 breast
# NCI-H226 lung = test system: NCI-H226 lung
# PC-3 prostate = test system: PC-3 prostate
# T-47D breast = test system: T-47D breast
# SK-OV-3 ovarian = test system: SK-OV-3 ovarian
# U251 CNS = test system: U251 CNS
# SN12C renal = test system: SN12C renal
# SF-539 CNS = test system: SF-539 CNS
# CAKI-1 renal = test system: CAKI-1 renal
# M14 melanoma = test system: M14 melanoma
# SR leukemia = test system: SR leukemia
# SW-620 colon = test system: SW-620 colon
# CCRF-CEM leukemia = test system: CCRF-CEM leukemia
# EKVX NSCLC = test system: EKVX NSCLC
# LOX IMVI melanoma = test system: LOX IMVI melanoma
# UACC-62 melanoma = test system: UACC-62 melanoma
# MOLT-4 leukemia = test system: MOLT-4 leukemia
# 786-0 renal = test system: 786-0 renal
# OVCAR-5 ovarian = test system: OVCAR-5 ovarian
# HCC-2998 colon = test system: HCC-2998 colon
structure (smiles),measurement,setting,value
COc1csc(/C=N/NC(=O)c2[nH]c3ccc(Br)cc3c2-c2ccccc2)c1,GI50,A549 NSCLC,39.3 nM
same,TGI,A549 NSCLC,22000 nM
same,GI50,SNB-75 CNS,100 nM
same,TGI,SNB-75 CNS,3780 nM
same,GI50,MCF7 breast,28 nM
same,TGI,MCF7 breast,12700 nM
same,GI50,HT29 colon,26.7 nM
same,TGI,HT29 colon,69.1 nM
same,GI50,HOP-92 NSCLC,920 nM
same,TGI,HOP-92 NSCLC,51200 nM
same,GI50,UO-31 renal,60.2 nM
same,TGI,UO-31 renal,> 100000 nM
same,GI50,KM12 colon,37.3 nM
same,TGI,KM12 colon,10900 nM
same,GI50,RXF 393 renal,49.6 nM
same,TGI,RXF 393 renal,906 nM
same,GI50,NCI-H23 lung,42.7 nM
same,TGI,NCI-H23 lung,17000 nM
same,GI50,ACHN renal,63.4 nM
same,TGI,ACHN renal,34700 nM
same,GI50,SNB-19 CNS,47 nM
same,TGI,SNB-19 CNS,18400 nM
same,GI50,HCT-116 colon,30.5 nM
same,TGI,HCT-116 colon,1150 nM
same,GI50,HL-60(TB) leukemia,30.2 nM
same,TGI,HL-60(TB) leukemia,180 nM
same,GI50,MALME-3M melanoma,45.3 nM
same,TGI,MALME-3M melanoma,20500 nM
same,GI50,DU-145 prostate,36.8 nM
same,TGI,DU-145 prostate,11500 nM
same,GI50,NCI-H460 lung,34.6 nM
same,TGI,NCI-H460 lung,10600 nM
same,GI50,SF-268 CNS,48.8 nM
same,TGI,SF-268 CNS,> 54200 nM
same,GI50,SK-MEL-5 melanoma,26.3 nM
same,TGI,SK-MEL-5 melanoma,76.9 nM
same,GI50,K-562 leukemia,30.5 nM
same,TGI,K-562 leukemia,13100 nM
same,GI50,NCI-H522 lung,< 13.8 nM
same,TGI,NCI-H522 lung,41.3 nM
same,GI50,SF-295 CNS,30.3 nM
same,TGI,SF-295 CNS,6480 nM
same,GI50,IGROV1 ovarian,77.8 nM
same,TGI,IGROV1 ovarian,17800 nM
same,GI50,OVCAR-4 ovarian,5420 nM
same,TGI,OVCAR-4 ovarian,> 100000 nM
same,GI50,A498 renal,24000 nM
same,TGI,A498 renal,70100 nM
same,GI50,MDA-MB-435,27.2 nM
same,TGI,MDA-MB-435,98.5 nM
same,GI50,SK-MEL-2 melanoma,35.5 nM
same,TGI,SK-MEL-2 melanoma,389 nM
same,GI50,UACC-257 melanoma,635 nM
same,TGI,UACC-257 melanoma,> 67200 nM
same,GI50,NCI/ADR-RES ovarian,23.8 nM
same,TGI,NCI/ADR-RES ovarian,57.4 nM
same,GI50,OVCAR-3 ovarian,32.5 nM
same,TGI,OVCAR-3 ovarian,720 nM
same,GI50,MDA-MB-231 breast,26.4 nM
same,TGI,MDA-MB-231 breast,69.3 nM
same,GI50,OVCAR-8 ovarian,28.9 nM
same,TGI,OVCAR-8 ovarian,2000 nM
same,GI50,BT-549 breast,30.5 nM
same,TGI,BT-549 breast,354 nM
same,GI50,TK-10 renal,13200 nM
same,TGI,TK-10 renal,43600 nM
same,GI50,COLO 205 colon,26.5 nM
same,TGI,COLO 205 colon,70.3 nM
same,GI50,RPMI-8226 leukemia,39.1 nM
same,TGI,RPMI-8226 leukemia,8210 nM
same,GI50,HOP-62 NSCLC,79.4 nM
same,TGI,HOP-62 NSCLC,10500 nM
same,GI50,HS 578T breast,34.6 nM
same,TGI,HS 578T breast,22700 nM
same,GI50,HCT-15 colon,33.2 nM
same,TGI,HCT-15 colon,14800 nM
same,GI50,SK-MEL-28 melanoma,1730 nM
same,TGI,SK-MEL-28 melanoma,46500 nM
same,GI50,MDA-MB-468 breast,23.2 nM
same,TGI,MDA-MB-468 breast,65.1 nM
same,GI50,NCI-H226 lung,315 nM
same,TGI,NCI-H226 lung,2160 nM
same,GI50,PC-3 prostate,57.5 nM
same,TGI,PC-3 prostate,48800 nM
same,GI50,T-47D breast,3890 nM
same,TGI,T-47D breast,> 95800 nM
same,GI50,SK-OV-3 ovarian,51.9 nM
same,TGI,SK-OV-3 ovarian,15500 nM
same,GI50,U251 CNS,32 nM
same,TGI,U251 CNS,12300 nM
same,GI50,SN12C renal,38.7 nM
same,TGI,SN12C renal,9100 nM
same,GI50,SF-539 CNS,21.7 nM
same,TGI,SF-539 CNS,53.1 nM
same,GI50,CAKI-1 renal,111 nM
same,TGI,CAKI-1 renal,34600 nM
same,GI50,M14 melanoma,29.2 nM
same,TGI,M14 melanoma,22500 nM
same,GI50,SR leukemia,23.5 nM
same,TGI,SR leukemia,23300 nM
same,GI50,SW-620 colon,42.4 nM
same,TGI,SW-620 colon,> 100000 nM
same,GI50,CCRF-CEM leukemia,29.9 nM
same,TGI,CCRF-CEM leukemia,1020 nM
same,GI50,EKVX NSCLC,86.3 nM
same,TGI,EKVX NSCLC,> 100000 nM
same,GI50,LOX IMVI melanoma,30.2 nM
same,TGI,LOX IMVI melanoma,18900 nM
same,GI50,UACC-62 melanoma,42 nM
same,TGI,UACC-62 melanoma,16700 nM
same,GI50,MOLT-4 leukemia,46.3 nM
same,TGI,MOLT-4 leukemia,> 37400 nM
same,GI50,786-0 renal,85.1 nM
same,TGI,786-0 renal,9690 nM
same,GI50,OVCAR-5 ovarian,47.5 nM
same,TGI,OVCAR-5 ovarian,53200 nM
same,GI50,HCC-2998 colon,89.4 nM
same,TGI,HCC-2998 colon,17300 nM

# From PubChem BioAssay (NCI)
